Drawing on ChEMBL document CHEMBL5442379, “ASAP - SARS-CoV-2 nsp3 macrodomain single point” (2024), this text covers inhibition for 29 compounds.

This test has as its target Replicase polyprotein 1ab (Severe acute respiratory syndrome coronavirus 2) (UniProt P0DTD1).

Description: Functional biochemical assay to identify treatments for viral infectious disease that targets SARS-COV-2 nsp3 macrodomain, whereby the mechanism of action displaces an ADP-Ribose modified peptide from the binding site. Utilizing a time-resolved fluorescence method to measure binding by reading the emitted fluorescence intensity in two wavelengths.

On to `N[C@@H]1CCC[C@@H](C(=O)N(CCC(=O)N2CCNCC2)Cc2cccc(Cl)c2)C1`, for which the inhibition (Concentration 49.75 uM, Number of replicates 2.0, Standard deviation 0.617 %) is -0.755% and the inhibition (Concentration 99.5 uM, Number of replicates 2.0, Standard deviation 0.793 %) is -1.47%. Consider `O=C(c1c[nH]c(=O)cn1)N1CCC(c2ccn3ncc(C(=O)N4CCCCC4)c3c2)CC1`, for which the inhibition (Concentration 99.5 uM, Number of replicates 2.0, Standard deviation 1.433 %) turned out to be 45.8%. `Nc1c(O)cccc1C(=O)N(CCC(=O)N1CCNCC1)Cc1cccc(Cl)c1`: the inhibition runs as follows: (Concentration 49.75 uM, Number of replicates 2.0, Standard deviation 0.165 %) -1.24%; (Concentration 99.5 uM, Number of replicates 2.0, Standard deviation 3.032 %) 1.46%. For the compound `O=C(c1cnc[nH]1)N1CCC(c2ccn3ncc(C(=O)N4CCCCC4)c3c2)CC1`, the inhibition runs as follows: (Concentration 49.75 uM, Number of replicates 2.0, Standard deviation 1.741 %) 20.3%; (Concentration 99.5 uM, Number of replicates 2.0, Standard deviation 2.598 %) 35.3%. In the case of `CN1CCOc2cccc(NC(=O)Nc3cnc4[nH]ncc4c3)c21`, the inhibition (Concentration 50.0 uM, Number of replicates 2.0, Standard deviation 1.985 %) is -6.54%. On to `O=C(Nc1ccccc1)Nc1ccc(C(=O)N2CCc3nc[nH]c3C2)cc1`, for which the inhibition by setting is: (Concentration 49.75 uM, Number of replicates 2.0, Standard deviation 2.91 %) -3.02%; (Concentration 99.5 uM, Number of replicates 2.0, Standard deviation 5.124 %) -2.38%. Take `Cc1ccc(NC(=O)c2cnn3ccc(C4CCN(C(=O)c5ccccc5)CC4)cc23)cc1C(=O)O`: the inhibition (Concentration 49.75 uM, Number of replicates 2.0, Standard deviation 0.305 %) was -1.05% and the inhibition (Concentration 99.5 uM, Number of replicates 2.0, Standard deviation 2.043 %) is -0.624%.

On to `O=C(Cc1n[nH]c2c1CCCC2)Nc1cnc2[nH]ncc2c1`, for which the inhibition (Concentration 50.0 uM, Number of replicates 2.0, Standard deviation 2.447 %) was -1.26%.

Turning to `Cc1ccc(-c2n[nH]cc2CNc2cnc3[nH]ncc3c2)o1`, the inhibition (Concentration 50.0 uM, Number of replicates 2.0, Standard deviation 33.024 %) amounted to 7.23%.

As to `Cn1cc([C@@H](Nc2ncnc3[nH]ccc23)c2ccccc2)cn1`, the inhibition is, setting by setting: (Concentration 49.75 uM, Number of replicates 2.0, Standard deviation 1.638 %) 20%; (Concentration 99.5 uM, Number of replicates 2.0, Standard deviation 1.226 %) 39.3%. For the compound `Cc1nc(C(=O)N2CCC(c3ccn4ncc(C(=O)N5CCCCC5)c4c3)CC2)c(=O)[nH]c1C`, the inhibition stood at 26.4% (Concentration 49.75 uM, Number of replicates 2.0, Standard deviation 2.437 %) and 44.2% (Concentration 99.5 uM, Number of replicates 2.0, Standard deviation 0.005 %).

In the case of `CN(c1ncnc2[nH]ccc12)[C@H]1CCN(S(C)(=O)=O)C1`, for the setting “Concentration 50.0 uM, Number of replicates 2.0, Standard deviation 5.861 %”, the inhibition was -0.371%. Regarding `CC(C)[C@@H](Nc1ncnc2[nH]ccc12)c1nncn1C`, the inhibition (Concentration 49.75 uM, Number of replicates 2.0, Standard deviation 0.565 %) amounted to 4.59% and the inhibition (Concentration 99.5 uM, Number of replicates 2.0, Standard deviation 7.858 %) stood at 10.8%. For the compound `NC1(C(=O)N(CCC(=O)N2CCNCC2)Cc2cccc(Cl)c2)CC(F)(F)C1`, the inhibition (Concentration 49.75 uM, Number of replicates 2.0, Standard deviation 0.286 %) is -3.48% and the inhibition (Concentration 99.5 uM, Number of replicates 2.0, Standard deviation 3.805 %) is -1.17%. On to `Fc1ccc(Oc2cc(CNc3ncnc4nc[nH]c34)ccn2)cc1`, for which the inhibition (Concentration 50.0 uM, Number of replicates 2.0, Standard deviation 7.991 %) was 2.01%. As to `O=C1C[C@H](CNC(=O)c2ccc(NC(=O)Nc3ccccc3)cc2)CCN1`, the inhibition reads like this: (Concentration 49.75 uM, Number of replicates 2.0, Standard deviation 1.043 %) 1.22%; (Concentration 99.5 uM, Number of replicates 2.0, Standard deviation 0.12 %) 4.01%.

Take `CC(C)n1ncnc1CNc1cc2c(=O)nc[nH]c2cn1`: the inhibition (Concentration 50.0 uM, Number of replicates 2.0, Standard deviation 0.347 %) was -1.49%. Consider `OC[C@@]1(Cc2ccc(F)cc2)CCN(c2ncnc3[nH]ccc23)C1`, for which, for the setting “Concentration 50.0 uM, Number of replicates 2.0, Standard deviation 2.787 %”, the inhibition amounted to 5.07%. As for `CO[C@@H]1CCCN(C(=O)c2cnn3ccc(C4CCN(C(=O)c5ccccc5)CC4)cc23)C1`, the inhibition turned out to be 22.6% (Concentration 49.75 uM, Number of replicates 2.0, Standard deviation 1.69 %) and 39.8% (Concentration 99.5 uM, Number of replicates 2.0, Standard deviation 3.272 %). With `Cc1cocc1C(=O)N(CCC(=O)N1CCNCC1)Cc1cccc(Cl)c1`, the inhibition is, setting by setting: (Concentration 49.75 uM, Number of replicates 2.0, Standard deviation 0.438 %) 1.4%; (Concentration 99.5 uM, Number of replicates 2.0, Standard deviation 0.13 %) 0.51%. Regarding `COc1cc(Nc2ncnc3[nH]ccc23)ccc1NC(C)=O`, the inhibition (Concentration 50.0 uM, Number of replicates 2.0, Standard deviation 12.002 %) is -7.76%. For `O=C(c1ccccc1)N1CCC(c2ccn3ncc(C(=O)N4CCCC[C@H](O)C4)c3c2)CC1`, the inhibition reads like this: (Concentration 49.75 uM, Number of replicates 2.0, Standard deviation 40.732 %) 17.8%; (Concentration 99.5 uM, Number of replicates 2.0, Standard deviation 41.407 %) 29.8%. Take `O=C(NCc1nc2cccnc2[nH]1)c1cnc2nc[nH]c(=O)c2c1`: the inhibition reads like this: (Concentration 50.0 uM, Number of replicates 2.0, Standard deviation 1.79 %) -1.99%; (Concentration 100.0 uM, Number of replicates 2.0, Standard deviation 3.352 %) 7.03%. `CN1CCO[C@H](CNC(=O)c2ccc(NC(=O)Nc3ccccc3)cc2)C1`: the inhibition runs as follows: (Concentration 49.75 uM, Number of replicates 2.0, Standard deviation 5.309 %) -0.616%; (Concentration 99.5 uM, Number of replicates 2.0, Standard deviation 6.496 %) 3.27%. In the case of `Cc1cccc2oc(CCNc3ncnc4[nH]ccc34)nc12`, the inhibition (Concentration 50.0 uM, Number of replicates 2.0, Standard deviation 6.123 %) is -3.26%. Take `COc1ccccc1C[C@@H](Nc1ncnc2[nH]ccc12)C(C)C`: the inhibition is, setting by setting: (Concentration 49.75 uM, Number of replicates 2.0, Standard deviation 1.888 %) 31.7%; (Concentration 99.5 uM, Number of replicates 2.0, Standard deviation 1.108 %) 48.5%. On to `O=C(CCN(Cc1cccc(Cl)c1)C(=O)c1cnon1)N1CCNCC1`, for which the inhibition (Concentration 49.75 uM, Number of replicates 2.0, Standard deviation 0.478 %) was -2.44% and the inhibition (Concentration 99.5 uM, Number of replicates 2.0, Standard deviation 0.154 %) is -1.08%. In the case of `Cc1ccc(C(=O)N(CCC(=O)N2CCNCC2)Cc2cccc(Cl)c2)[nH]1`, the inhibition (Concentration 49.75 uM, Number of replicates 2.0, Standard deviation 5.038 %) was -5.9% and the inhibition (Concentration 99.5 uM, Number of replicates 2.0, Standard deviation 2.609 %) was -3.94%.

For `O=C(N[C@@H]1COCC[C@H]1O)c1cnn2ccc(C3CCN(C(=O)c4ccccc4)CC3)cc12`, the inhibition is -5.01% (Concentration 49.75 uM, Number of replicates 2.0, Standard deviation 1.335 %) and -4.48% (Concentration 99.5 uM, Number of replicates 2.0, Standard deviation 2.833 %).

A word on the inhibition: it is the change of the read-out against control, counted positive when it falls.
